Experimental data: patent publication US20220193076A1, “METHODS OF TREATING BREAST CANCER WITH TUCATINIB” (Seagen Inc., priority 2019, published 2022)

Legend:
[1] = Example 1: renal function (iohexol aGFR, serum creatinine, urine albumin); format: in vivo, human
CYP3A4 = CYP3A4 (Homo sapiens, UniProt P08684); assay: Example 2 Part D: effect of tucatinib on PK of substrate probe midazolam; conditions: steady-state tucatinib in combination with tolbutamide/midazolam vs tolbutamide/midazolam alone
CYP3A4, sequence (P08684 whole entry): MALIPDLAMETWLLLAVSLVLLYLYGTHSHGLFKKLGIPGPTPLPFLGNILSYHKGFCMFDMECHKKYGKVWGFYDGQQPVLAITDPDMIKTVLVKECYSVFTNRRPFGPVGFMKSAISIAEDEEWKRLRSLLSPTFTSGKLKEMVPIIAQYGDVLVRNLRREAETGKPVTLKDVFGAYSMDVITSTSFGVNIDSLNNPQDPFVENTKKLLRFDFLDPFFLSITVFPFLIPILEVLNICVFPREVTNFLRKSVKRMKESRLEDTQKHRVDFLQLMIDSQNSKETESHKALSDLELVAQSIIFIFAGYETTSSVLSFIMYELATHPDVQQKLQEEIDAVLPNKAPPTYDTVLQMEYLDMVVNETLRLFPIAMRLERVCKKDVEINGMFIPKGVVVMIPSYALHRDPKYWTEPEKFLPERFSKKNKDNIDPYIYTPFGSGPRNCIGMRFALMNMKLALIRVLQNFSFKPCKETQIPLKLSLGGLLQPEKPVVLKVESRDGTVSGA
Protocol: (§1) A Phase 1, open-label, fixed-sequence, 5-part, drug-drug interaction study of tucatinib was conducted to evaluate the effects of CYP3A4 and CYP2C8 inhibition and induction on the pharmacokinetics of tucatinib and to evaluate the effects of tucatinib on the pharmacokinetics of substrates of CYP3A4, CYP2C8, CYP2C9, and P-glycoprotein in healthy male and female subjects.
(§2) Part B evaluates the effect of rifampin, a strong inducer of CYP3A4 and CYP2C8, on the PK of tucatinib. […] Part E evaluates the effect of tucatinib on the PK of a substrate probe of the transporter P-gp (digoxin). […] For Parts A, B, and C, tucatinib is given as a single oral dose because evaluating plasma exposures after a single dose of tucatinib is expected to provide an appropriate assessment of the impact of the probe drugs on tucatinib PK. In Parts D and E, tucatinib is given as a multiple-dosing regimen in order to examine its effects on probe drugs at steady state, at which maximal inhibition of CYP2C8, CYP2C9, CYP3A4, and P-gp by tucatinib should be achieved.
(§3) Secondary objectives of the study included: (1) assessing the safety and tolerability of tucatinib when administered alone and when co-administered with substrate probes of CYP2C8, CYP2C9, and CYP3A4; and (2) assessing the single-dose PK of tucatinib and assessing the multiple-dose, steady-state PK of tucatinib alone and in the presence of substrate probes of CYP2C8, CYP2C9, and CYP3A4 in healthy subjects.
(§4) They were discharged on Day 14 after completion of the in-patient assessments.
(§5) On Day 1, each subject received a single oral dose of 0.5 mg of repaglinide. […] From Day 4 to Day 13, each subject received oral doses of 300 mg of tucatinib, twice daily (BID). On Day 11, each subject received a single oral dose of repaglinide. […] Tucatinib was provided as 150-mg tablets (2 tablets for the 300-mg dose), repaglinide was provided as 0.5-mg tablets, olbutamide was provided as 500-mg tablets, and midazolam was provided as a syrup (2 mg/mL; 1 mL syrup for the 2-mg dose). Tucatinib, repaglinide, olbutamide and midazolam were administered before meals preceded by an at least 8-hour overnight fast.
(§6) Other noncompartmental PK parameters may be reported. Additionally, blood samples for determination of plasma concentrations of tucatinib and ONT-993 were collected at the time points indicated in FIG. 8. […] A single genotyping blood sample was collected to assess possible effect of CYP polymorphisms or other genetic polymorphisms on the magnitude of drug interactions of tucatinib with probe drugs and substrates.

CYP2C8 = target: T1, CYP2C8 (Homo sapiens, UniProt P10632); assay: Example 2 Part D: effect of tucatinib on PK of substrate probe repaglinide; format: in vivo; parameters: endogenous in cells; host or cells: healthy human subjects, in vivo; conditions: repaglinide in combination with steady-state tucatinib vs repaglinide alone
T1 sequence (P10632 1-490): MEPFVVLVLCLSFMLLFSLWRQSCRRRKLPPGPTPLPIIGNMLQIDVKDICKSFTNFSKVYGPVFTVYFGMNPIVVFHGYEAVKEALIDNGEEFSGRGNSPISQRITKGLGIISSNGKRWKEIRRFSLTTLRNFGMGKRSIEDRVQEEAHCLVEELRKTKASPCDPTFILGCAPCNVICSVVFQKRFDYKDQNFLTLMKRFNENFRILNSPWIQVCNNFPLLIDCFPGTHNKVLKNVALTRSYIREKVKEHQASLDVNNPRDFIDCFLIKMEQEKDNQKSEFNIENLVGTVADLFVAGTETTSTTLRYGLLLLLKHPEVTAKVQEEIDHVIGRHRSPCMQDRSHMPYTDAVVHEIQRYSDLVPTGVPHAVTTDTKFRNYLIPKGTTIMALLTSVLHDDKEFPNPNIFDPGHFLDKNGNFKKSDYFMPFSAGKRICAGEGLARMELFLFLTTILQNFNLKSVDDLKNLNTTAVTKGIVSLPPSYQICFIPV
Protocol: as §1, §2, §3, §4, §5, §6

MATE1/2K [2] = assay: Phase 1 drug-drug interaction study: effect of tucatinib on metformin pharmacokinetics (Example 1)
MATE1/2K [3] = assay: clinical; conditions: both, human, plasma
CYP2C9 = CYP2C9 (Homo sapiens, UniProt P11712); assay: Example 2 Part D: effect of tucatinib on PK of substrate probe tolbutamide; conditions: tolbutamide/midazolam in combination with steady-state tucatinib vs tolbutamide/midazolam alone
CYP2C9, sequence (P11712 whole entry): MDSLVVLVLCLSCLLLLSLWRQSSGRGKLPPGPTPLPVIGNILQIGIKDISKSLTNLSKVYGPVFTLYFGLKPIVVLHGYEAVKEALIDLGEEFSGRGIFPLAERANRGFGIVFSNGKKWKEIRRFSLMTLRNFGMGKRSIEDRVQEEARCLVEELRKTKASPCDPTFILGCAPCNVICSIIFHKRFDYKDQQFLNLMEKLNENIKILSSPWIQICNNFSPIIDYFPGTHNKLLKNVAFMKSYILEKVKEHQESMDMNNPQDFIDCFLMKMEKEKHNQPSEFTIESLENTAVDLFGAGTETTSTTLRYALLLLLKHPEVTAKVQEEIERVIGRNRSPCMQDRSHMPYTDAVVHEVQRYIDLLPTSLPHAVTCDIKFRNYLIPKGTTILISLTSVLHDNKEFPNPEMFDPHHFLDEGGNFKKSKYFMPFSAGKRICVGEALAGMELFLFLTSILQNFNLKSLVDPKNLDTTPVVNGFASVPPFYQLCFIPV
Protocol: as §1, §2, §3, §4
On Day 1, each subject received a single oral dose of 0.5 mg of repaglinide. […] From Day 4 to Day 13, each subject received oral doses of 300 mg of tucatinib, twice daily (BID). On Day 11, each subject received a single oral dose of repaglinide. […] Tucatinib was provided as 150-mg tablets (2 tablets for the 300-mg dose), repaglinide was provided as 0.5-mg tablets, olbutamide was provided as 500-mg tablets, and midazolam was provided as a syrup (2 mg/mL; 1 mL syrup for the 2-mg dose). […]

P-gp = P-gp (Homo sapiens, UniProt P08183); assay: Example 2 Part E: effect of tucatinib on PK of substrate probe digoxin; conditions: digoxin in combination with steady-state tucatinib vs digoxin alone
P-gp, sequence (P08183 whole entry): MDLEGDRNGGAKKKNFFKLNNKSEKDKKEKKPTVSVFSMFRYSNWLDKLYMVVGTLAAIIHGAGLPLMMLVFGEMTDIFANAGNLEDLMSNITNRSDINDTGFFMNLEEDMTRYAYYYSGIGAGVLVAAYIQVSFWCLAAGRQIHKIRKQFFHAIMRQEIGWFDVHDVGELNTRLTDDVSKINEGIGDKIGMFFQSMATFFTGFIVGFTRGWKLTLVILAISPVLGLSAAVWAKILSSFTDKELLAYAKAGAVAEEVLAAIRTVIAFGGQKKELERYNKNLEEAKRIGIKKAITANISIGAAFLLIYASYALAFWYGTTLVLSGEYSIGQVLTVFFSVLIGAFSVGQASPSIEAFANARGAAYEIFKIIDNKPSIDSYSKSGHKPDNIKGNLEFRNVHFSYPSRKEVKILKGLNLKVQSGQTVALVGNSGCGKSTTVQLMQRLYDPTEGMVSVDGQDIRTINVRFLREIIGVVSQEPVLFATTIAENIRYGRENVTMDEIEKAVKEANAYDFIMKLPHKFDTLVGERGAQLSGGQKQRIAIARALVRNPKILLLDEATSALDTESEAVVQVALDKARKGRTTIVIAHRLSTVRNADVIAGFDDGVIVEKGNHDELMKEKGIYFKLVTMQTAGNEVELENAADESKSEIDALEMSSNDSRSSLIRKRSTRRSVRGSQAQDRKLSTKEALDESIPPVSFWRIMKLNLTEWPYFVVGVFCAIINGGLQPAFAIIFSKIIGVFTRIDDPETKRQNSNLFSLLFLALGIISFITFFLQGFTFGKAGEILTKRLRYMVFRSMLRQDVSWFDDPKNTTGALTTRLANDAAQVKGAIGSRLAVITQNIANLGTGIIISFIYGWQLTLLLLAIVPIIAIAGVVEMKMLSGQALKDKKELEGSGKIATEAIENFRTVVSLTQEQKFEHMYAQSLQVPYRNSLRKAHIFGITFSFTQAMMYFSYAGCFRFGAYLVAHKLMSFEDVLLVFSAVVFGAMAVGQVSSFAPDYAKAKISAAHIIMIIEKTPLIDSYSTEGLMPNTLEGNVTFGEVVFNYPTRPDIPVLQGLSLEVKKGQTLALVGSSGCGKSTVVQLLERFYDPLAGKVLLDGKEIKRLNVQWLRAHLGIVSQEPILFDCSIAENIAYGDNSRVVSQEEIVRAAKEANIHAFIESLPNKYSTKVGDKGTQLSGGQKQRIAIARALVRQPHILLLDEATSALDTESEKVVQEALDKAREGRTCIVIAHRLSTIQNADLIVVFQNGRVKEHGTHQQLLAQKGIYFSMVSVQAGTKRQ
Protocol: as §1, §2
A single genotyping blood sample was collected to assess possible effect of CYP polymorphisms or other genetic polymorphisms on the magnitude of drug interactions of tucatinib with probe drugs and substrates.

[4] = coadministration of tucatinib with metformin compared to metformin alone
[5] = Metformin with tucatinib (Test), n = 17

## CC(=O)N(CC(O)CO)c1c(I)c(C(=O)NCC(O)CO)c(I)c(C(=O)NCC(O)CO)c1I (stereo not shown) [iohexol, reference compound]
[1]; [4]
  Mean iohexol PK parameters: similar
[1]; metformin alone
  aGFR estimated using the Jødal and Brøchner Mortensen equation (iohexol): 94.99 mL/min/1.73 m^2
[1]; metformin plus tucatinib
  aGFR estimated using the Jødal and Brøchner Mortensen equation (iohexol): 94.56 mL/min/1.73 m^2

## Cc1ncc2n1-c1ccc(Cl)cc1C(c1ccccc1F)=NC2 [midazolam]
CYP3A4
  Geometric LS mean ratio (90% CI), AUC0-∞: 5.74 (5.05, 6.53)
  Geometric LS mean ratio (90% CI), AUClast: 5.30 (4.65, 6.04)
  Geometric LS mean ratio (90% CI), Cmax: 3.01 (2.63, 3.45)

## CCOc1cc(CC(=O)N[C@@H](CC(C)C)c2ccccc2N2CCCCC2)ccc1C(=O)O [repaglinide]
CYP2C8
  Geometric LS mean ratio (90% CI), AUC0-∞: 1.69 (1.51, 1.90)
  Geometric LS mean ratio (90% CI), AUClast: 1.72 (1.55, 1.91)
  Geometric LS mean ratio (90% CI), Cmax: 1.69 (1.37, 2.10)

## CN(C)C(=N)N=C(N)N [metformin]
MATE1/2K [2]; Metformin + tucatinib 300 mg bid at steady state, Day 8, N = 17
  Plasma metformin CL/F, arithmetic mean (CV %): 77.4 L/h
MATE1/2K [2]; Metformin + tucatinib 300 mg bid at steady state, Day 8, N = 17, listed as Metformin
  Plasma metformin CL/F, arithmetic mean (CV %): 77.4 (34.9) L/h
MATE1/2K [2]; Metformin alone, 850 mg oral, Day 1, N = 17
  Plasma metformin CL/F, arithmetic mean (CV %): 105.4 L/h
MATE1/2K [2]; Metformin alone, 850 mg oral, Day 1, N = 17, listed as Metformin
  Plasma metformin CL/F, arithmetic mean (CV %): 105.4 (26.7) L/h
MATE1/2K [2]; [5]
  AUC0-last, geometric least-squares (LS) mean: 11054 ng·h/mL
  Cmax, geometric least-squares (LS) mean: 1418 ng/mL
MATE1/2K [2]; [4]
  Increase of arithmetic mean metformin AUC0-inf: 1.409 fold
  Increase of arithmetic mean metformin AUC0-last: 1.376 fold
  Increase of arithmetic mean metformin Cmax: 1.102 fold
MATE1/2K [3]; oral
  AUC: 11600 ng·h/mL
MATE1/2K [3]; oral, 850 mg
  AUC: 8330 ng·h/mL
  AUC(0-t): 8150 ng·h/mL
  Cmax: 1310 ng/mL
MATE1/2K [3]; po, 850 mg
  AUC(0-inf): 8610 ng·h/mL
  AUC(0-t): 8420 ng·h/mL
  Cmax: 1330 ng/mL
  Vd/F: 695 L

## CCCCNC(=O)NS(=O)(=O)c1ccc(CO)cc1 [4-hydroxytolbutamide]
CYP2C9
  Geometric LS mean ratio (90% CI), AUC0-∞: 0.918 (0.880, 0.958)
  Geometric LS mean ratio (90% CI), AUClast: 0.900 (0.868, 0.934)
  Geometric LS mean ratio (90% CI), Cmax: 0.881 (0.831, 0.934)

## OCc1ncc2n1-c1ccc(Cl)cc1C(c1ccccc1F)=NC2 [1-hydroxymidazolam]
CYP3A4
  Geometric LS mean ratio (90% CI), AUC0-∞: 1.02 (0.903, 1.16)
  Geometric LS mean ratio (90% CI), AUClast: 0.945 (0.848, 1.05)
  Geometric LS mean ratio (90% CI), Cmax: 0.593 (0.507, 0.694)
  Geometric mean MRAUC0-∞, decreased by: approximately 82.8%
  Geometric mean MRCmax, decreased by: ~80.4%

## C[C@H]1O[C@@H](O[C@H]2[C@@H](O)C[C@H](O[C@H]3[C@@H](O)C[C@H](O[C@H]4CC[C@@]5(C)[C@H](CC[C@@H]6[C@@H]5C[C@@H](O)[C@]5(C)[C@@H](C7=CC(=O)OC7)CC[C@]65O)C4)O[C@@H]3C)O[C@@H]2C)C[C@H](O)[C@@H]1O [digoxin]
P-gp
  Geometric LS mean ratio (90% CI), AUC0-∞: 1.46 (1.29, 1.66)
  Geometric LS mean ratio (90% CI), AUClast: 1.53 (1.35, 1.74)
  Geometric LS mean ratio (90% CI), Cmax: 2.35 (1.90, 2.90)
